Data published in patent US6361788B1, “Synergistic biocide composition” (Thor Chemie GmbH, priority 1997, dated 2002).
Where two headings read alike, the source gives them in different places.

Columns and labels:
Type in all cases: cell-based
Penicillium funiculosum [1] = experiment: MIC and synergy of MIT/BIT (1:1) and IPBC in Sabouraud maltose broth, 72 h
Description: (§1) In all the examples in which an active substance mixture of MIT and BIT as well as additionally a further active biocidal substance was used, the weight ratio of MIT to BIT was 1:1.
(§2) The synergy index is calculated according to the method of F. C. Kull et al., Applied Microbiology, Vol. 9 (1961), p. 538. Here the synergy index is calculated using the following formula:
(§3) Synergy index SI=Qa/QA+Qb/QB.
The synergy of an active substance mixture that contains IPBC in addition to MIT and BIT, against the microorganism Penicillium funiculosum is shown as in Example 1.
(§4) The test batches contained a Sabouraud maltose broth as a nutrient medium. The spore concentration was 10^6 per mL. The incubation time was 72 h at 25° C. Each sample was incubated on an incubation shaker at 120 rpm.

Aspergillus niger [2] = experiment: as above
Description: as §1, §2, §3
The synergy of an active substance mixture that contains 3-iodo-2-propinyl-N-butyl carbamate (IPBC) in addition to MIT and BIT, against the microorganism Aspergillus niger is shown as in Example 1.
as §4

Saccharomyces cerevisiae = experiment: MIC and synergy of MIT/BIT (1:1) and OIT in Sabouraud maltose broth, 72 h
Description: as §1, §2, §3
The synergy of an active substance mixture that contains OIT in addition to MIT and BIT, against the microorganism Saccharomyces cerevisiae is shown as in Example 1.
The test batches contained a Sabouraud maltose broth as a nutrient medium. The cell density was 10^6 cells/mL. The incubation time was 72 h at 25° C. Each sample was incubated on an incubation shaker at 120 rpm.

Pseudomonas aeruginosa [3] = experiment: MIC and synergy of MIT/BIT (1:1) and OIT in Müller-Hinton broth, 144 h
Description: as §1, §2, §3
The synergy of an active substance mixture that contains OIT in addition to MIT and BIT, against the microorganism Pseudomonas aeruginosa is shown as in Example 1.
The test batches contained a Müller-Hinton broth as a nutrient medium. The cell density was 10^6 cells/mL. The incubation time was 144 h at 25° C. Each sample was incubated on an incubation shaker at 120 rpm.

Penicillium funiculosum [4] = experiment: MIC and synergy of MIT/BIT (1:1) and OIT in Sabouraud maltose broth, 72 h; conditions: for growth of the microorganism: MIT/BIT ppm = row head c0; for growth of the microorganism: key: growth of the microorganism took place (symbol '+'); or not (symbol '−')
Description: as §1, §2, §3
The synergy of an active substance mixture that contains OIT in addition to MIT and BIT, against the microorganism Penicillium funiculosum is shown as in Example 1.
as §4

Aspergillus niger [5] = experiment: as above
Description: as §1, §2, §3
The synergy of an active substance mixture that contains 2-n-octylisothiazolin-3-one (OIT) in addition to MIT and BIT, against the microorganism Aspergillus niger is shown as in Example 1.
as §4

Pseudomonas aeruginosa [6] = experiment: MIC and synergy of MIT/BIT (1:1) and HCHO in Müller-Hinton broth, 48 h
Description: as §2, §3
The test batches contained a Müller-Hinton broth as a nutrient medium. The cell density was 10^6 cells/mL. The incubation time was 48 h at 25° C. Each sample was incubated on an incubation shaker at 120 rpm.

Escherichia coli = experiment: as above
Description: as §2, §3
The test batches contained a Müller-Hinton broth as a nutrient medium. The cell density was 10^6 cells/mL. The incubation time was 48 b at 25° C. Each sample was incubated on an incubation shaker at 120 rpm.

[7] = at the MIC, Penicillium funiculosum, 72 h
[8] = at the MIC, Aspergillus niger, 72 h

## CCCCNC(=O)OCC#CI [IPBC, 3-iodo-2-propinyl-N-butyl carbamate]
Penicillium funiculosum [1]; IPBC share at the MIC, Penicillium funiculosum, 72 h
  MIC at IPBC concentration Qb: 0.75 ppm
Penicillium funiculosum [1]; Penicillium funiculosum, 72 h
  Qb/QB: 1.00
  Synergy index Qa/QA + Qb/QB: 1.00
Penicillium funiculosum [1]; [7]
  Total concentration MIT/BIT + IPBC: 0.75 ppm
Penicillium funiculosum [1]; used alone, 72 h at 25° C.
  MIC value: 0.75 ppm
Aspergillus niger [2]; Aspergillus niger, 72 h
  Qb/QB: 1.00
  Synergy index Qa/QA + Qb/QB: 1.00
Aspergillus niger [2]; IPBC share at the MIC, Aspergillus niger, 72 h
  MIC at IPBC concentration Qb: 2.5 ppm
Aspergillus niger [2]; [8]
  Total concentration BIT/MIT + IPBC Qa + Qb: 2.5 ppm
Aspergillus niger [2]; used alone, 72 h at 25° C.
  MIC value: 2.5 ppm

## CCCCCCCCn1sccc1=O [OIT, 2-n-octylisothiazolin-3-one]
Saccharomyces cerevisiae; OIT share at the MIC, Saccharomyces cerevisiae, 72 h
  MIC at OIT concentration Qb: 5 ppm
Saccharomyces cerevisiae; Saccharomyces cerevisiae, 72 h
  Qb/QB: 1.00
  Synergy index Qa/QA + Qb/QB: 1.00
Saccharomyces cerevisiae; at the MIC, Saccharomyces cerevisiae, 72 h
  Total concentration MIT/BIT + OIT: 5 ppm
Saccharomyces cerevisiae; used alone, 72 h at 25° C.
  MIC value: 5 ppm
Pseudomonas aeruginosa [3]; OIT share at the MIC, Pseudomonas aeruginosa, 144 h
  MIC at OIT concentration Qb: 900 ppm
Pseudomonas aeruginosa [3]; Pseudomonas aeruginosa, 144 h
  Qb/QB: 1.00
  Synergy index Qa/QA + Qb/QB: 1.00
Pseudomonas aeruginosa [3]; at the MIC, Pseudomonas aeruginosa, 144 h
  Total concentration MIT/BIT + OIT: 900 ppm
Pseudomonas aeruginosa [3]; used alone, 144 h at 25° C.
  MIC value: over 800 ppm
Penicillium funiculosum [4]; OIT 0.25 ppm, 72 h
  growth of the microorganism: +
Penicillium funiculosum [4]; OIT 0.5 ppm, 72 h
  growth of the microorganism: +
Penicillium funiculosum [4]; OIT 1 ppm, 72 h
  growth of the microorganism: +
Penicillium funiculosum [4]; OIT 2.5 ppm, 72 h
  growth of the microorganism: +
Penicillium funiculosum [4]; OIT 5 ppm, 72 h
  growth of the microorganism: −
Penicillium funiculosum [4]; OIT share at the MIC, Penicillium funiculosum, 72 h
  MIC at OIT concentration Qb: 5 ppm
Penicillium funiculosum [4]; Penicillium funiculosum, 72 h
  Qb/QB: 1.00
  Synergy index Qa/QA + Qb/QB: 1.00
Penicillium funiculosum [4]; [7]
  Total concentration MIT/BIT + OIT: 5 ppm
Penicillium funiculosum [4]; used alone, 72 h at 25° C.
  MIC value: 5 ppm
Aspergillus niger [5]; Aspergillus niger, 72 h
  Qb/QB: 1.00
  Synergy index Qa/QA + Qb/QB: 1.00
Aspergillus niger [5]; OIT share at the MIC, Aspergillus niger, 72 h
  MIC at OIT concentration Qb: 5 ppm
Aspergillus niger [5]; [8]
  Total concentration MIT/BIT + OIT: 5 ppm
Aspergillus niger [5]; used alone, 72 h at 25° C.
  MIC value: 5 ppm

## C=O [HCHO, formaldehyde]
Pseudomonas aeruginosa [6]
  Qb/QB: 1.00
  Synergy index Qa/QA + Qb/QB: 1.00
Pseudomonas aeruginosa [6]; at the MIC
  Total concentration MIT/BIT + HCHO: 300 ppm
Pseudomonas aeruginosa [6]; read-out: MIC at HCHO concentration Qb
  MIC: 300 µg/mL
Pseudomonas aeruginosa [6]; read-out: MIC value
  MIC: 300 µg/mL
Escherichia coli; 48 h
  Qb/QB: 1.00
  Synergy index Qa/QA + Qb/QB: 1.00
Escherichia coli; 48 h, read-out: MIC at HCHO concentration Qb
  MIC: 300 µg/mL
Escherichia coli; at the MIC, 48 h
  Total concentration MIT/BIT + HCHO: 300 ppm
Escherichia coli; read-out: MIC value
  MIC: 300 µg/mL
